We go through five substances from publication PMC2905701, “Synthesis and Biological Evaluation of New CRH Analogues” (Bioinorganic Chemistry and Applications, 2010).

Non-standard residues stand in square brackets, D forms with d. No end group written: not given here. *: point of attachment. Aib = CC(C)(N)C(=O)O; Propyl = CCC*

The conditions of assay [1]: times more potent than α-helical CRH; cited from earlier work. From the text:
Introduction of D-amino acids leading to stabilization of β-turns, can provide analogues with increased potency but not all residues are susceptible to such an alteration, leading even to the opposite effect. However, the D-Phe^12 substitution has proven to be a favorable one especially combined with other advantageous modifications such as the replacement of Met at positions 21 and 38 with Nle.

A further assay addresses T1, CRH-1 receptor (Homo sapiens, UniProt P34998).
T1 sequence (P34998 24-415): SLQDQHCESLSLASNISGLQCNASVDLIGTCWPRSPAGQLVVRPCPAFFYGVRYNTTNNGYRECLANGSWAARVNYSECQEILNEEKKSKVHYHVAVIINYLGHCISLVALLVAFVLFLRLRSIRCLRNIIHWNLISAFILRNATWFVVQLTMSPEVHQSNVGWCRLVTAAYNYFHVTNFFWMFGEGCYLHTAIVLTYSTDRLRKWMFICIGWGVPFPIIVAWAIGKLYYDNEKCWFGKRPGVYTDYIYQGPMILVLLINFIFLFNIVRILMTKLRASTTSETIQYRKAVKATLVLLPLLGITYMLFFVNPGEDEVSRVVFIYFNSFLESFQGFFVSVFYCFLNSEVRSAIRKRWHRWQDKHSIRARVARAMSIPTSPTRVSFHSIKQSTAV
The assay is described as follows: Binding affinity of h/r-CRH analogues to the CRH-1 receptor. Particulars: averages from 3 experiments performed in duplicates.

Another assay addresses T2, CRH-R1 (Homo sapiens, UniProt P34998).
T2 construct: expressed in transfected cells; host or cells: LLC-PK1 cells (electroporation)
T2 sequence (P34998 24-415): T1 sequence (P34998 24-415)
The assay is described as follows: Stimulation of cyclic AMP generation (CRE-luciferase activity) in LLC-PK1 cells cotransfected with CRH-R1 and CRE. The settings on record: LLC-PK1 cells cotransfected with CRH-R1 and CRE cDNA; peptides 10^-6 to 10^-11 M, 7 hours at 37°C; luciferase read-out; maximum response compared to h/r-CRH; read-out: Biological activity: % Response max/CRH. The class given is cell-based. The protocol: The capacity of CRH and related peptide analogues to stimulate cyclic AMP generation was monitored in LLC-PK1 cells cotransfected with cDNA of CRH-R1 and CRE. For transfection the method of electroporation was applied and 40 millions of LLC-PK1 cells were prepared and washed in cytomix 1X transfection medium. The electroporation medium consisted of 1000 μL of cytomix 2X, 864 μL of sterilized water, 80 μL of ATP 50 mM, 3.2 mg of glutathion, 20 μg of CRH-R1 cDNA and 20 μg of CRE cDNA. 500 μL of the above solution were transferred in the electroporation device and after remaining for 10 minutes a standard growth medium was added (DMEM without phenol red with glutamine, antibiotics, and 10% FCS) to a total volume of 50 mL. The suspension was distributed in […] of 24 wells each, by adding 1 mL per well, and was allowed to pre-incubate for 24 hours. The growth medium was aspirated and replaced with fresh one followed by another preincubation for 24 hours. The cells were then challenged with graded concentrations (10^−6 to 10^−11 M) of the test peptides and incubated for 7 hours at 37°C. After that, the medium with the added peptides was removed, the cells were washed twice with PBS 1X, 100 μL of lysis buffer 1X per well were added, the plates were left at room temperature for 30 minutes and then stored at −80°C overnight. The luciferace activity was measured with the use of a luminometer after the addition of 50 μL of lysed cell preparation and 50 μL of bioluminescence medium per well in a 96 well plate luminometer.

In the case of [D-Phe^12]CRH, the “Potency relative to α-helical CRH” value in assay [1] is “twice”. By IC50 is commonly meant the concentration that gives 50% inhibition. Lower therefore signals greater potency in that assay. Turning to “SEEPPISLDLT[dF]H[Aib]LREVLEMARAEQLAQQAHSNRKLMEII-NH2 [Analogue 1, [D-Phe^12, Aib^14]CRH]”, on CRH-1 receptor, the IC50 worked out at 226 nM. In addition, the Emax on CRH-R1 was found to be 60%. The like results for “SEEPPISLDLT[dF]HL[Aib]REVLEMARAEQLAQQAHSNRKLMEII-NH2 [Analogue 2, [D-Phe^12, Aib^15]CRH]” were, in that order, 8.4 nM and 60%. On CRH-1 receptor, “SEEPPISLDLT[dF]HLLREVLEMARAEQLAQQAHSNRKLC(Propyl)EII-NH2 [Analogue 4, [D-Phe^12, Cys(Pr)^38]CRH]” gave an IC50 of 35 nM. In addition, the Emax at CRH-R1 turned out to be 60%. Consider [D-Phe^12, Nle^21, 38]CRH21-41, for which the “Potency relative to α-helical CRH” value in assay [1] is recorded as 15 times.
